Assay results reported in patent US20250188030A1, “Biphenyl and Phenylpyridine Compounds” (Pfizer Inc., priority 2023, published 2025).
Read-outs that look alike come from different tables or passages of the source.

Tests used:
KAT2B = KAT2B (Homo sapiens (Human), UniProt Q92831); experiment: KAT2B acetyltransferase biochemical assay (RapidFire mass spectrometry, AcCoA to CoA)
KAT2A = KAT2A (Homo sapiens (Human), UniProt Q92830); experiment: KAT2A acetyltransferase biochemical assay (RapidFire mass spectrometry, AcCoA to CoA)
H3K9AC (HT1080 cells) = experiment: H3K9AC Sandwich ELISA Assay in HT1080 cells (KAT2A primary cell-based screening assay); design: species or system Human
Method in brief: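 Acetylated H3K9 quantified by luminescent sandwich ELISA (total H3 capture, H3K9ac detection) on HCl lysates of HT1080 cells. Cells had 24 h compound exposure at 37 °C, top concentration 10 µM, 10-point 3-fold series, 0.1% DMSO; IC50 from four-parameter fitting.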

MM.1S cells = experiment: MM1.S 10 Day Proliferation Assay (CellTiter-Glo); assay type: cell-based, Human
Method in brief: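 MM.1S cells, 500/well in ultra-low-attachment plates, were pre-incubated 16 h, then exposed to a 10-point 1:3 dilution series (top 10 μM final, 0.1% DMSO) for 10 days at 37 °C, with compound-containing medium refreshed at day 5. Viability was read by CellTiter-Glo luminescence; IC50 came from four-parameter fit.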

[1] = read-out: KAT2B Ki at 1 μM AcCoA, 1 μM AcCoA, 5 μM H3 1-21 peptide, 0.5 nM KAT2B, 90-minute reaction
[2] = read-out: KAT2A Ki at 1 μM AcCoA, 5 μM H3 1-21 peptide, 0.5 nM KAT2A, 90-minute reaction
[3] = Homo sapiens, HT-1080, H3K9AC sandwich ELISA
[4] = KAT2A Ki at 1 μM AcCoA, 5 μM H3 1-21 peptide, 0.5 nM KAT2A, 90-minute reaction

Chain of KAT2A (Q92830 whole entry): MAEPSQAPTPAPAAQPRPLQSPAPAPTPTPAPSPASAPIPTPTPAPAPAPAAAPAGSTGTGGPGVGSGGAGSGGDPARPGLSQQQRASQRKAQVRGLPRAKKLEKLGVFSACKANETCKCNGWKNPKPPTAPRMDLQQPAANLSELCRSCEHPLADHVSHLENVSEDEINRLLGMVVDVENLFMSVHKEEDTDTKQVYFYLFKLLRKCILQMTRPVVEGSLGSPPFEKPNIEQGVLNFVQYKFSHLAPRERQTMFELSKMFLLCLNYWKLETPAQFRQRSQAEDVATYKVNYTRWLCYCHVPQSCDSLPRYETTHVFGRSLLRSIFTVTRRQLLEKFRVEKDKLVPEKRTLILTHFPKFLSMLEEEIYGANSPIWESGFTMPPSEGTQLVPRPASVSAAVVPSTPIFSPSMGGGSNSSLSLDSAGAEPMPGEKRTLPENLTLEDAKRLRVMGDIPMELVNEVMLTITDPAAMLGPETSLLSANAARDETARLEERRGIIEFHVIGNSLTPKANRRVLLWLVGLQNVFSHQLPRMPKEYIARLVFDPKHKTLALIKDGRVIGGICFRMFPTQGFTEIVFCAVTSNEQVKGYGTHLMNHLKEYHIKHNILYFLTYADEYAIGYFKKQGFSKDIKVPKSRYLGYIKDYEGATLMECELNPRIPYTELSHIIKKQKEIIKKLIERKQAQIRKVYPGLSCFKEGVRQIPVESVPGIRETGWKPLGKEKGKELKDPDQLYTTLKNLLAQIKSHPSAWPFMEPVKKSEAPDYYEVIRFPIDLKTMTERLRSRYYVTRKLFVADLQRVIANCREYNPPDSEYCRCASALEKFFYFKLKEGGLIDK
Chain of KAT2B (Q92831 2-832): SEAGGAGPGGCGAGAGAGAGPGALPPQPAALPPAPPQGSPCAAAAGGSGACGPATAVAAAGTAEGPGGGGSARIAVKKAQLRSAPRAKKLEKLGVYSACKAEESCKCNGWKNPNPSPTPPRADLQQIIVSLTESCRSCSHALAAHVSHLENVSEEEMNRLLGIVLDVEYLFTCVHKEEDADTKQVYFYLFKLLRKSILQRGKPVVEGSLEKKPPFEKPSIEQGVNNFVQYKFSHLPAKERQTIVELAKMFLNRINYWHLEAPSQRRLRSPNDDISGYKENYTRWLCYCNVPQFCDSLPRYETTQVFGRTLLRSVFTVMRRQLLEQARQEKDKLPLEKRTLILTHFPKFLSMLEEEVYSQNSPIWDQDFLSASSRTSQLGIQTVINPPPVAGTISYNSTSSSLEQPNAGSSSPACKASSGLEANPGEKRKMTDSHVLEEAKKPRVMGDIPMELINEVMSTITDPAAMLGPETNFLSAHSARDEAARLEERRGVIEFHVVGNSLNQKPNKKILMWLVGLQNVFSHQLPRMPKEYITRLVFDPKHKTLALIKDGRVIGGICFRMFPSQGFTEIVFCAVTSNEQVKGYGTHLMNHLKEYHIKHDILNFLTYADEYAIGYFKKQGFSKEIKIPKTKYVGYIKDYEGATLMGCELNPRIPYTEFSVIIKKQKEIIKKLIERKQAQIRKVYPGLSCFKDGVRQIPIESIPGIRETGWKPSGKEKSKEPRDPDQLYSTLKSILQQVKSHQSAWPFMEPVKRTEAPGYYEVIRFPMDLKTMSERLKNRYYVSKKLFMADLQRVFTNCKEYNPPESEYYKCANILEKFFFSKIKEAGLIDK

SMILES | Ki (KAT2B; [1]) | Ki (KAT2A; [2]) | IC50 (H3K9AC (HT1080 cells); [3]) | IC50 (MM.1S cells; Homo sapiens, MM1.S, 240 h) | IC50 (H3K9AC (HT1080 cells); H3K9AC sandwich ELISA) | Ki (KAT2B) | Ki (KAT2A; [4]) | IC50 (MM.1S cells)
CN1CC(C)(C)C[C@H]1C(=O)N[C@@H]1CC[C@@H](Oc2cccc(C(=O)O)c2-c2cccc(F)c2C2CCC2)C1 (atropisomer, axis not shown) [Example H3, (1ψ)-2′-cyclobutyl-3′-fluoro-6-({(1R,3R)-3-[(1,4,4-trimethyl-L-prolyl)amino]cyclopentyl}oxy)[1,1′-biphenyl]-2-carboxylic acid] | 32.9 nM | 18.3 nM | 57.2 nM | 219 nM | – | – | – | –
CN1CC(C)(C)C[C@H]1C(=O)N[C@@H]1CC[C@@H](Oc2cccc(CC(=O)O)c2-c2ccccc2C2CCC2)C1 (atropisomer, axis not shown) [Example H6, [(1ψ)-2′-cyclobutyl-6-({(1R,3R)-3-[(1,4,4-trimethyl-L-prolyl)amino]cyclopentyl}oxy)[1,1′-biphenyl]-2-yl]acetic acid] | 63.6 nM | – | – | 679 nM | 84.2 nM | – | – | –
CC1(C)C[C@H](C(=O)N[C@@H]2CC[C@@H](Oc3cccc(C(=O)O)c3-c3cccc(F)c3C3CCC3)C2)CN1 (atropisomer, axis not shown) [Example H9, (1ψ)-2′-cyclobutyl-6-{[(1R,3R)-3-{[(3ξ)-5,5-dimethylpyrrolidine-3-carbonyl]amino}cyclopentyl]oxy}-3′-fluoro[1,1′-biphenyl]-2-carboxylic acid] | 115 nM | 33 nM | 90 nM | – | – | – | – | –
CN1CC(C)(C)C[C@H]1C(=O)N[C@@H]1CC[C@@H](Oc2cccc(C(=O)NS(=O)(=O)N3CC(F)C3)c2-c2cccc(F)c2C2CCC2)C1 (atropisomer, axis not shown) [Example I12, N-[(1R,3R)-3-({(1ψ)-2′-cyclobutyl-3′-fluoro-6-[(3-fluoroazetidine-1-sulfonyl)carbamoyl][1,1′-biphenyl]-2-yl}oxy)cyclopentyl]-1,4,4-trimethyl-L-prolinamide] | 20.3 nM | 20.6 nM | 6.43 nM | 123 nM | – | – | – | –
CC(C)(C(=O)O)c1ccc(O[C@@H]2CC[C@@H](NC(=O)[C@]3(F)CNC4(CCCC4)C3)C2)c(-c2cccc(F)c2C2CCC2)c1 (single isomer, unassigned) [Example A6] | 1.21 nM | 0.54 nM | 7.67 nM | 92.4 nM | – | – | – | –
CC1(C)CNC[C@](F)(C(=O)N[C@@H]2CC[C@@H](Oc3ccc(C(C)(C)C(=O)O)cc3-c3cccc(F)c3C3CCC3)C2)C1 (single isomer, unassigned) [Example A16] | 2.43 nM | 1.39 nM | – | 144 nM | 13.4 nM | – | – | –
CC1(C)CNC[C@](F)(C(=O)N[C@@H]2CC[C@@H](Oc3ccc(CC(=O)O)cc3-c3cccc(F)c3C3CCC3)C2)C1 (single isomer, unassigned) [Example A23] | 2.85 nM | 0.57 nM | 6.36 nM | 60 nM | – | – | – | –
CCS(=O)(=O)NC(=O)C(C)(C)c1ccc(O[C@@H]2CC[C@@H](NC(=O)C3(F)CNC4(CCC4)C3)C2)c(-c2cccc(F)c2C2CCC2)c1 (single isomer, unassigned) [Example B2] | – | – | – | 7.51 nM | 3.14 nM | 0.13 nM | 0.13 nM | –
CC(C)S(=O)(=O)NC(=O)C(C)(C)c1ccc(O[C@@H]2CC[C@@H](NC(=O)[C@]3(F)CNC4(CCC4)C3)C2)c(-c2cccc(F)c2C2CCC2)c1 (single isomer, unassigned) [Example B4] | 0.15 nM | 0.14 nM | 3.12 nM | 8.38 nM | – | – | – | –
CCS(=O)(=O)NC(=O)C(C)(C)c1ccc(O[C@@H]2CC[C@@H](NC(=O)[C@@]3(F)CNC(C)(C)C3)C2)c(-c2cccc(F)c2C2CCC2)c1 (single isomer, unassigned) [Example B13] | 0.35 nM | 0.14 nM | – | – | 1.96 nM | – | – | 38.8 nM
CCS(=O)(=O)NC(=O)C(C)(C)c1ccc(O[C@@H]2CC[C@@H](NC(=O)[C@@]3(F)CNC4(CCCC4)C3)C2)c(-c2cccc(F)c2C2CCC2)c1 (single isomer, unassigned) [Example B20] | 0.06 nM | 0.05 nM | 0.93 nM | 1.76 nM | – | – | – | –
CC1(C)CNCC(F)(C(=O)N[C@@H]2CC[C@@H](Oc3ccc(C(C)(C)C(=O)NS(=O)(=O)C4CC4)cc3-c3cccc(F)c3C3CCC3)C2)C1 (single isomer, unassigned) [Example B28] | 0.19 nM | 0.14 nM | 2.7 nM | 5 nM | – | – | – | –
CC(C)(C(=O)NS(C)(=O)=O)c1ccc(O[C@@H]2CC[C@@H](NC(=O)[C@@]3(F)CNC4(CCCC4)C3)C2)c(-c2cccc(F)c2C2CCC2)c1 (single isomer, unassigned) [Example C4] | 0.14 nM | 0.26 nM | – | – | 1.25 nM | – | – | 5.49 nM
CC1(C)C[C@@](F)(C(=O)N[C@@H]2CC[C@@H](Oc3ccc(C(C)(C)C(=O)NS(C)(=O)=O)cc3-c3cccc(F)c3C3CCC3)C2)CN1 (single isomer, unassigned) [Example C5] | 0.18 nM | 0.17 nM | 10.2 nM | 12.6 nM | – | – | – | –
CC1(C)C[C@](F)(C(=O)N[C@@H]2CC[C@@H](Oc3ccc(C(C)(C)C(=O)NS(C)(=O)=O)cc3-c3cccc(F)c3C3CCC3)C2)CN1 (single isomer, unassigned) [Example C6] | 14.8 nM | 2.75 nM | 89.7 nM | – | – | – | – | –
CC1(C)C[C@@](F)(C(=O)N[C@@H]2CC[C@@H](Oc3ccc(C(C)(C)C(=O)NS(=O)(=O)N4CCC4)cc3-c3cccc(F)c3C3CCC3)C2)CN1 (single isomer, unassigned) [Example C7] | 0.04 nM | 0.07 nM | 5.79 nM | 17.5 nM | – | – | – | –
CN(C)S(=O)(=O)NC(=O)C(C)(C)c1ccc(O[C@@H]2CC[C@@H](NC(=O)[C@@]3(F)CNC(C)(C)C3)C2)c(-c2cccc(F)c2C2CCC2)c1 (single isomer, unassigned) [Example C9] | 0.17 nM | 0.06 nM | 6.96 nM | 13.7 nM | – | – | – | –
CCc1c(F)cccc1-c1cc(C(C)(C)C(=O)NS(C)(=O)=O)ccc1O[C@@H]1CC[C@@H](NC(=O)[C@]2(F)CNC3(CCC3)C2)C1 (single isomer, unassigned) [Example C12] | 0.93 nM | 0.5 nM | 11 nM | 89.6 nM | – | – | – | –
CC(C)(C(=O)NS(C)(=O)=O)c1ccc(O[C@@H]2CC[C@@H](NC(=O)[C@]3(F)CNC4(CCC4)C3)C2)c(-c2cccc(F)c2C2CC2)c1 (single isomer, unassigned) [Example C14] | 5.62 nM | 1.41 nM | 17.7 nM | 63.7 nM | – | – | – | –
CC(C)(C(=O)NS(C)(=O)=O)c1ccc(O[C@@H]2CC[C@@H](NC(=O)[C@@]3(F)CNC4(CCCC4)C3)C2)c(-c2cccc(F)c2C2CCC2)c1 (single isomer, unassigned) [Example C16] | 0.06 nM | 0.08 nM | – | – | 23.2 nM | – | – | 81.8 nM
CC(C)c1c(F)cccc1-c1cc(C(C)(C)C(=O)NS(C)(=O)=O)ccc1O[C@@H]1CC[C@@H](NC(=O)[C@@]2(F)CNC3(CCC3)C2)C1 (single isomer, unassigned) [Example C19] | 0.8 nM | 0.12 nM | – | – | 5.06 nM | – | – | 66.7 nM
CC(C)(C(=O)NS(=O)(=O)C1(C)CC1)c1ccc(O[C@@H]2CC[C@@H](NC(=O)[C@@]3(F)CNC4(CCC4)C3)C2)c(-c2cccc(F)c2C2CC2)c1 (single isomer, unassigned) [Example C21] | 0.11 nM | 0.09 nM | – | 13.7 nM | 1.11 nM | – | – | –
CCc1c(F)cccc1-c1cc(C(C)(C)C(=O)NS(=O)(=O)CC)ccc1O[C@@H]1CC[C@@H](NC(=O)[C@@]2(F)CNC3(CCCC3)C2)C1 (single isomer, unassigned) [Example C24] | 0.22 nM | 0.34 nM | 2.77 nM | 9.83 nM | – | – | – | –
CCc1c(F)cccc1-c1cc(C(C)(C)C(=O)NS(=O)(=O)CC)ccc1O[C@@H]1CC[C@@H](NC(=O)[C@@]2(F)CNC3(CCCC3)C2)C1 (single isomer, unassigned) [Example C25] | 0.55 nM | 0.14 nM | – | – | 1.71 nM | – | – | 9.29 nM
CN1CC2(CCOCC2)C[C@H]1C(=O)N[C@@H]1CC[C@@H](Oc2ccc(C(=O)O)cc2-c2ccccc2C2CCC2)C1 (single isomer, unassigned) [Example D2] | – | – | 30.6 nM | – | – | 46.8 nM | 70.3 nM | –
CCn1cc(-c2ccc(O[C@@H]3CC[C@@H](NC(=O)[C@@]4(F)CNC5(CCC5)C4)C3)c(-c3cccc(F)c3C3CCC3)c2)c(C(=O)O)n1 (single isomer, unassigned) [Example J13] | 0.62 nM | 0.14 nM | 10.2 nM | – | – | – | – | –
CC(C)c1ccccc1-c1cc(C(=O)O)ccc1O[C@@H]1CC[C@@H](NC(=O)[C@@H]2CC(C)(C)CN2C)C1 [Example D5, 2′-(propan-2-yl)-6-({(1R,3R)-3-[(1,4,4-trimethyl-L-prolyl)amino]cyclopentyl}oxy)[1,1′-biphenyl]-3-carboxylic acid] | 58.8 nM | 12.8 nM | 30.4 nM | – | – | – | – | –
